From publication PMC12423841 (ACS Omega, 2025) come the findings set out here.

In experiment [1] the target is protein S (S:D614G) (Severe acute respiratory syndrome coronavirus 2, UniProt P0DTC2, D614G). Details: species or system SARS-CoV-2.
Experiment [2] has as its target RBDBA.1 (SARS-CoV-2 spike RBD, Omicron BA.1 variant) (Severe acute respiratory syndrome coronavirus 2, UniProt P0DTC2, E484A/G339D/G446S/G496S/K417N/N440K/N501Y/Q493R/Q498R/S371L/S373P/S375F/S477N/T478K/Y505H). Format: binding. The settings on record: read-out: K D values RBDBA.1.
Experiment [3] has as its target SWuhan (SARS-CoV-2 S protein HexaPro, Wuhan-Hu-1 variant) (Severe acute respiratory syndrome coronavirus 2, UniProt P0DTC2, A892P/A899P/A942P/F817P/K986P/V987P). The class given is binding. Particulars: read-out: K D values SWuhan.
In experiment [4] the target is SBA.1 (SARS-CoV-2 S protein, Omicron BA.1 variant) (Severe acute respiratory syndrome coronavirus 2, UniProt P0DTC2, A67V/D614G/D796Y/DEL143-145/DEL211-211/DEL69-70/E484A/G142D/G339D/G446S/G496S/H655Y/INS214EPE/K417N/L212I/L981F/N440K/N501Y/N679K/N764K/N856K/N969K/P681H/Q493R/Q498R/Q954H/S371L/S373P/S375F/S477N/T478K/T547K/T95I/Y505H, form not given). Format: binding. Particulars: read-out: K D values SBA.1.

Experiment [5] deals with RBDWuhan (SARS-CoV-2 spike RBD, Wuhan-Hu-1 variant) (Severe acute respiratory syndrome coronavirus 2, UniProt P0DTC2). The class given is binding. Particulars: read-out: K D values RBDWuhan.

`CCCCCCCCc1ccc(CCC(N)(CO)CO)cc1` [fingolimod]: the “architecture of spikes by negative-stain electron microscopy” value in experiment [1] is reported as “do not damage the architecture of the proteins”.

As for catechin, the Kd in experiment [2] was more than 1 mM; in experiment [3], 0.927 ± 0.076 mM; in experiment [4], more than 1 mM; in experiment [5], more than 1 mM.
